Measured values reported in ChEMBL document CHEMBL5506025, “Discovery of LLC0424 as a Potent and Selective in Vivo NSD2 PROTAC Degrader” (J Med Chem, 2024).
Calls of active or inactive are those of the source. No cut-off for these calls is given here.

Assays:
[1] = molecular target: T1, Protein cereblon/Histone-lysine N-methyltransferase NSD2 (Homo sapiens) (UniProt O96028+Q96SW2); test: PROTAC activity at CRBN/NSD2 in human RPMI 8402 cells assessed as downregulation of H3K36Me2 level at 2 uM measured upto 24 hrs hrs by immunoblot analysis; type: cell-based
T1 sequence (O96028 whole entry, looked up): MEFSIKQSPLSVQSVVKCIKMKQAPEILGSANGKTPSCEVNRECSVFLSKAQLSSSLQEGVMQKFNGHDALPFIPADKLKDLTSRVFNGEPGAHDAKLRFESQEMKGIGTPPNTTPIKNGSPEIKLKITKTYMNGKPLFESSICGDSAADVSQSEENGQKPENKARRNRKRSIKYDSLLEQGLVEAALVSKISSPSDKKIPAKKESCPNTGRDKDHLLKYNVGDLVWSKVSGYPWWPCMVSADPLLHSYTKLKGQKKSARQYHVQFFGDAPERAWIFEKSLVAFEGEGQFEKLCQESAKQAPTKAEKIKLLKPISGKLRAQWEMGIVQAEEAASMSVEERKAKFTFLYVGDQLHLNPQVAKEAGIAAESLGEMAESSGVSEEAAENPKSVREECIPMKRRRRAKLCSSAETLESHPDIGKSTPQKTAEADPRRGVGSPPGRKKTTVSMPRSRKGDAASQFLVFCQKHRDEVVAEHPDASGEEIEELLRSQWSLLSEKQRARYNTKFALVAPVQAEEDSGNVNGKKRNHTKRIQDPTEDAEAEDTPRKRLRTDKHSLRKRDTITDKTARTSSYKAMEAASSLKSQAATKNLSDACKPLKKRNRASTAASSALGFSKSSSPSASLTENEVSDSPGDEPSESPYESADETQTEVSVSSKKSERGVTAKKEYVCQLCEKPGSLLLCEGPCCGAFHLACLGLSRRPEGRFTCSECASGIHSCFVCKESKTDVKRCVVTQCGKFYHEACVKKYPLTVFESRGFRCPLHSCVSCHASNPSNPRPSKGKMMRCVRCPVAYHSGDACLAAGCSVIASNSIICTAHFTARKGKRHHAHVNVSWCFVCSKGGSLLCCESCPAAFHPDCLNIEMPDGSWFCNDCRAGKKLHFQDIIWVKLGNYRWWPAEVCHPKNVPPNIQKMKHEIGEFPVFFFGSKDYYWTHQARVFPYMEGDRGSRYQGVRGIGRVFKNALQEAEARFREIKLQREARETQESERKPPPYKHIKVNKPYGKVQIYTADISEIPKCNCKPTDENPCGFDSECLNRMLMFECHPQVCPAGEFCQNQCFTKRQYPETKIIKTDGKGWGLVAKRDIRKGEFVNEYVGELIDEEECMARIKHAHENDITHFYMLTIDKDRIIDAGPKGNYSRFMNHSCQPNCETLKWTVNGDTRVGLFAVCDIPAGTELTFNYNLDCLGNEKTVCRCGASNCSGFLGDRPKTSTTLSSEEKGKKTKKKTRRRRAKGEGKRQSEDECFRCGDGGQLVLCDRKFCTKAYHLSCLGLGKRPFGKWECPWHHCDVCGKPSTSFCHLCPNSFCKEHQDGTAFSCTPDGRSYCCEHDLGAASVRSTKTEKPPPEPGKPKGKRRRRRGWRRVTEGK
T1 sequence (Q96SW2 whole entry, looked up): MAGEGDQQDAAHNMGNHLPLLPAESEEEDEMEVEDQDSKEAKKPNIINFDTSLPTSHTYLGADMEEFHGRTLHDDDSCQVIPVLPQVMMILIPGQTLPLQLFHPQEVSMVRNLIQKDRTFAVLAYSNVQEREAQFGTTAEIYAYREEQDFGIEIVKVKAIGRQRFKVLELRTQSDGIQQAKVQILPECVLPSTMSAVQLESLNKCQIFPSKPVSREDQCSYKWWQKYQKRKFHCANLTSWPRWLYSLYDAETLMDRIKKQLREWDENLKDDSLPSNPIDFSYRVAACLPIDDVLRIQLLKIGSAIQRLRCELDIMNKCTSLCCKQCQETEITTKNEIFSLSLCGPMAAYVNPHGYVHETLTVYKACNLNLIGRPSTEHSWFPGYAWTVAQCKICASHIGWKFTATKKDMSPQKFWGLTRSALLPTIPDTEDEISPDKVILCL

[2] = molecular target: T1, Protein cereblon/Histone-lysine N-methyltransferase NSD2 (Homo sapiens); test: PROTAC activity at CRBN/NSD2 in human RPMI 8402 cells assessed as induction of NSD2 degradation at 2 uM pretreated with bortezomib for 2 hrs followed by compound addition and measured after 6 to 12 hrs by Western blot analysis; type: cell-based; conditions: time 6-12 hrs
[3] = molecular target: T1, Protein cereblon/Histone-lysine N-methyltransferase NSD2 (Homo sapiens); test: In vivo PROTAC activity at CRBN/NSD2 in SCID mouse xenografted with human 22Rv1 cells assessed as downregulation of NSD2 level at 60 mg/kg, iv for 5 days by immunohistochemical analysis; type: functional, organism-based; conditions: CWR22R, time 5.0 day
[4] = molecular target: T1, Protein cereblon/Histone-lysine N-methyltransferase NSD2 (Homo sapiens); test: PROTAC activity at CRBN/NSD2 in human SEM cells assessed as induction of NSD2 degradation at 2 uM preincubated for 12 hrs followed by compound washout and measured after 48 hrs by immunoblot analysis; type: cell-based
[5] = molecular target: Cereblon/Ikaros (Homo sapiens) (UniProt Q96SW2+Q13422); test: PROTAC activity at CRBN/IKZF1 in human SEM cells assessed as decrease in IKZF1 level at 2 uM measured upto 8 hrs by immunoblot analysis; type: cell-based
[6] = molecular target: T1, Protein cereblon/Histone-lysine N-methyltransferase NSD2 (Homo sapiens); test: PROTAC activity at CRBN/NSD2 in human RPMI 8402 cells assessed as induction of NSD2 degradation at 2 uM pretreated with VL-285 for 2 hrs followed by compound addition and measured after 6 to 12 hrs by Western blot analysis; type: cell-based; conditions: time 6-12 hrs
RPMI 8402 = test: Cytotoxicity against human RPMI 8402 cells assessed as inhibition of cell growth at 2 uM measured after 9 days by Celltiter-glo assay; type: functional, cell-based; conditions: time 9.0 day
SEM cells [7] = test: Downregulation of MS4A1 gene expression in human SEM cells measured after 14 days by RNA sequencing assay; type: functional, cell-based; conditions: time 14.0 day
[8] = molecular target: T1, Protein cereblon/Histone-lysine N-methyltransferase NSD2 (Homo sapiens); test: PROTAC activity at CRBN/NSD2 in human RPMI 8402 cells assessed as induction of NSD2 degradation at 0.5 to 2 uM measured after 24 hrs by immunoblot analysis; type: cell-based; conditions: dose 0.5-2 µM
[9] = molecular target: T1, Protein cereblon/Histone-lysine N-methyltransferase NSD2 (Homo sapiens); test: In vivo PROTAC activity at CRBN/NSD2 in SCID mouse xenografted with human SEM cells assessed as downregulation of NSD2 level at 60 mg/kg, ip for 5 days by Western blot analysis; type: functional, organism-based; conditions: time 5.0 day
[10] = molecular target: T1, Protein cereblon/Histone-lysine N-methyltransferase NSD2 (Homo sapiens); test: PROTAC activity at CRBN/NSD2 in human RPMI 8402 cells assessed as induction of NSD2 degradation incubated for 24 hrs by immunoblot analysis; type: cell-based; conditions: dose 0.001-10 µM
SEM cells [11] = test: Cytotoxicity against human SEM cells harbouring NSD2 assessed as inhibition of cell growth at 2 uM measured after 9 days by Celltiter-glo assay; type: functional, cell-based; conditions: time 9.0 day
[12] = molecular target: T1, Protein cereblon/Histone-lysine N-methyltransferase NSD2 (Homo sapiens); test: PROTAC activity at CRBN/NSD2 in human SEM cells assessed as decrease in NSD2 level at 2 uM measured after 4 hrs by TMT-labeled quantitative proteomics assay; type: cell-based
[13] = molecular target: T1, Protein cereblon/Histone-lysine N-methyltransferase NSD2 (Homo sapiens); test: PROTAC activity at CRBN/NSD2 in human SEM cells assessed as induction of NSD2 degradation at 2 uM incubated for 12 hrs by immunoblot analysis; type: cell-based
[14] = molecular target: T1, Protein cereblon/Histone-lysine N-methyltransferase NSD2 (Homo sapiens); test: PROTAC activity at CRBN/NSD2 in human RPMI 8402 cells assessed as induction of NSD2 degradation at 2 uM pretreated with thalidomide for 2 hrs followed by compound addition and measured after 6 to 12 hrs by Western blot analysis; type: cell-based; conditions: time 6-12 hrs

In the case of `O=C1CCC(N2C(=O)c3ccc(N4CCC(NC(=O)c5ccc(NC(=O)c6ccc(CN(C(=O)c7ccc8c(c7)OCC(=O)N8)C7CC7)cc6)cc5)CC4)cc3C2=O)C(=O)N1` (stereo not given), the Activity [1] is reported as “Active”, the Activity [2] is reported as “inactive” and the Activity [3] is reported as “Active”. For the same molecule, the Activity [4] was “inactive”, the Activity [5] was “inactive” and the Activity [6] was “Active”. For the same molecule, the Activity (RPMI 8402) was “Active”, the Activity (SEM cells [7]) was “Active” and the Activity [8] was “Active”. For the same molecule, the Activity [9] was “Active”, the Activity [10] was “Dose-Dependent Effect” and the Activity (SEM cells [11]) was “Active”. For the same molecule, the Activity [12] was “Active”, the Activity [13] was “Active” and the Activity [14] was “inactive”.
